SMILES strings stand for the structures.

One may read the IC50 as the concentration needed to halve the response being measured.

Data set [1] deals with heme aggregation. Particulars: acetate buffer (pH=4.9)/n-octanol interface; cited from earlier work.
In data set [2] the test system is Plasmodium falciparum Dd2 (chloroquine resistant strain). It is filed as cell-based. Particulars: DD2, read-out: Dd2: IC50.
The conditions of data set [3]: cited from earlier work.
For data set [4], the system named is Plasmodium falciparum D10 (chloroquine sensitive strain). The data set is classed as cell-based. Particulars: D10, read-out: D10: IC50.

As to `CCN(CC)CCCC(C)Nc1ccnc2cc(Cl)ccc12` (stereo not shown) [CQ, chloroquine], the “HAIR50 (drug to hemin ratio required to inhibit 50% of heme aggregation)” value in data set [1] is 2.92. In addition, the IC50 in data set [2] was 143 ± 14 nM; in data set [4] it was 25 ± 9 nM. Further, the “D(pH=4.9) water/n-octanol distribution coefficient” value in data set [3] (pH 4.9) is 0.15 ± 0.01. For the same molecule, the “D(pH=6.6) water/n-octanol distribution coefficient” value in data set [3] (pH 6.6) was 6.61 ± 0.64.
Consider `Clc1ccc2c(NCCNCc3ccccn3)ccnc2c1` [L^1, N-(2-((pyridin-2-yl)methylamino)ethyl)-7-chloroquinolin-4-amine], for which the results for the IC50 in data set [2] and in data set [4] were 220 ± 30 nM and 30 ± 2 nM, respectively.
With `Cn1ccnc1CNCCNc1ccnc2cc(Cl)ccc12` [L^2, N-(2-((1-methyl-1H-imidazol-2-yl)methylamino)ethyl)-7-chloroquinolin-4-amine], the IC50 in data set [2] turned out to be 250 ± 60 nM; in data set [4] it was 190 ± 30 nM.
The corresponding values for `Oc1ccccc1CN=CCNc1ccnc2cc(Cl)ccc12` [L^3, N-(2-((2-hydroxyphenyl)methylimino)ethyl)-7-chloroquinolin-4-amine] are more than 30000 nM and 550 ± 300 nM.
The corresponding values for `Clc1ccc2c(NCCN(Cc3ccccn3)Cc3ccccn3)ccnc2c1` [L^4, N-(2-(bis((pyridin-2-yl)methyl)amino)ethyl)-7-chloroquinolin-4-amine] are 1300 ± 100 nM and 1300 ± 100 nM.

The values are drawn from article PMC3303165 (Dalton Transactions (Cambridge, England : 2003), 2012).
